Results published in patent US9302991B2, “Arylamide derivatives as TTX-S blockers” (RaQualia Pharma Inc., priority 2010, dated 2016).
Values joined by “and” are separate entries in the source; they are usually repeats but may differ in a detail not shown here. Equal entries are not always repeated.

Key:
[1] = test system: CFA-induced thermal hyperalgesia in rats; test: Complete Freund's Adjuvant (CFA)-induced thermal hyperalgesia in rats; format: in vivo, Sprague-Dawley rats; conditions: 30 mg/kg per os
Protocol: Complete Freund's Adjuvant (CFA)-Induced Thermal Hyperalgesia in Rats
Male Sprague-Dawley rats at 6 weeks old are purchased from Charles River Japan Inc., and housed in groups of two per cage under a 12-h light/dark cycle (lights on at 07:00) with access to food and water ad libitum. CFA-induced thermal hyperalgesia is assessed using the plantar test apparatus (Ugo Basile) as described by Hargreaves K et al. (Pain 1988, 32: 77-88). The animals are placed in an apparatus consisting of individual testing box on an elevated glass table and allowed to acclimate for at least 10 minutes. Following the habituation, a mobile radiant heat source is located under the table and heat stimulation is applied to the plantar surface of the right hind paw. The latency to remove its hind paw is defined as paw withdrawal latency (PWL) in sec. The cut-off point is set at 30 seconds to prevent tissue damage. CFA is prepared at a concentration of 2-3 mg/mL of Mycobacterium tuberculosis H37 RA in liquid paraffin. After disinfections with 70% ethanol, the rats are injected intraplantarly with 100 microL of CFA (200-300 microgram) into the right hind paw. Two days after CFA injection, PWL is measured in the same manner as mentioned above. […] The PWL is measured at the appropriated time after compound administration. […]

human Nav1.7 channels = molecular target: T1, human Nav1.7 channels (Homo sapiens, UniProt Q15858); test: FRET assay, human Nav1.7 (EFS on FDSS); format: cell-based; conditions: CHO cells expressing human Nav1.7, read-out: IC50 against Nav1.7
T1 construct: expressed in transfected cells; host or cells: CHO
T1 sequence (Q15858 whole entry): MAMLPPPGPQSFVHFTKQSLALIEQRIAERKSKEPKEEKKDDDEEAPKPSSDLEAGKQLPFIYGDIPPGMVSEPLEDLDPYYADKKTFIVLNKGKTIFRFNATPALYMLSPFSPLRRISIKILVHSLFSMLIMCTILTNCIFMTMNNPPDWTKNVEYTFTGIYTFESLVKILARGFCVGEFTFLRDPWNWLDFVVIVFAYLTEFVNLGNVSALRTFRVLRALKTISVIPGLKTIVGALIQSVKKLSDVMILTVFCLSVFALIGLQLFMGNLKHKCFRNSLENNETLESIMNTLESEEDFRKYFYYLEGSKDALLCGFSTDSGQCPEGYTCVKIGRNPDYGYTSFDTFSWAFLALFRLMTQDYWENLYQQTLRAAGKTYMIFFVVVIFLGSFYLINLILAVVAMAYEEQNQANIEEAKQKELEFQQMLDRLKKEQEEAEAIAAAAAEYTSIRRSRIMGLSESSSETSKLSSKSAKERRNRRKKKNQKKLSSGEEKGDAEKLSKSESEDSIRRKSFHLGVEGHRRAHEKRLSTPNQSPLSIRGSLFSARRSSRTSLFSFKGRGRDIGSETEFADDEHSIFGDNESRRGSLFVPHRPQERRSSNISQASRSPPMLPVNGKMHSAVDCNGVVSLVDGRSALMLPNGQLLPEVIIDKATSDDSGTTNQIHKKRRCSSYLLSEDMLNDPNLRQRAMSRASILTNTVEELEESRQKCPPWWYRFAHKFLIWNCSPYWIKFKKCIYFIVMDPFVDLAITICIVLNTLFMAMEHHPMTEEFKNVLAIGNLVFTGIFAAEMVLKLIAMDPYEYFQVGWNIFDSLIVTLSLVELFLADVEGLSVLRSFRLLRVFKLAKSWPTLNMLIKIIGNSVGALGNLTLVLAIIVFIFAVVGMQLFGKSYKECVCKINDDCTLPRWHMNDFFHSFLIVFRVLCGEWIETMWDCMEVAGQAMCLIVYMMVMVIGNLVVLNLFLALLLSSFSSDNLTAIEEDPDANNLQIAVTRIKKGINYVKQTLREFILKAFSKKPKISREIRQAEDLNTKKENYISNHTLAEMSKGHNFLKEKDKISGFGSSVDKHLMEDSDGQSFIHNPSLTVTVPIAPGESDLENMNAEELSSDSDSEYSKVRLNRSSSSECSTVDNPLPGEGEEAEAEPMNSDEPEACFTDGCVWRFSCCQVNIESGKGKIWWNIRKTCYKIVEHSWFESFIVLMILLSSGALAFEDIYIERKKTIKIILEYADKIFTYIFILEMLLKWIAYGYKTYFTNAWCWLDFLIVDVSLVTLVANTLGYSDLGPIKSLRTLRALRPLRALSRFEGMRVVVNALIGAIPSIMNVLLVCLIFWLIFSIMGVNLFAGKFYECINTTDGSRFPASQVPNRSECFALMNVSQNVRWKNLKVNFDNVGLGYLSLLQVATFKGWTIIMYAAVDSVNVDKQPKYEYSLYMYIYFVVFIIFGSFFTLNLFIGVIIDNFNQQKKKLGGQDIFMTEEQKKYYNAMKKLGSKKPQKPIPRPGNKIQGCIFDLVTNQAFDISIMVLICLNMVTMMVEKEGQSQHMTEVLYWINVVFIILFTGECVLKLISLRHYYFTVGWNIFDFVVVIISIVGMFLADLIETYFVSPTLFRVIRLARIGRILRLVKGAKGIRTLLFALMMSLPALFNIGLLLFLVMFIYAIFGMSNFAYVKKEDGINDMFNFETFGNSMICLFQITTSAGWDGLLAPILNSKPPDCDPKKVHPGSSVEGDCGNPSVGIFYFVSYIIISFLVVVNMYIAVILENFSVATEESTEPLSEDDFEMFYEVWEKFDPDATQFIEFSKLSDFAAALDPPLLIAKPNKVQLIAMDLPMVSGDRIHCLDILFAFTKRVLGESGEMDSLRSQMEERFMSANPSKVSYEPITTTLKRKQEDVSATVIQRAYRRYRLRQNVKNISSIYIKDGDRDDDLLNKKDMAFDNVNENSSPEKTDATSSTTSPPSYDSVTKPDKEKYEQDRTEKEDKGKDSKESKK
Method in brief: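 IC50 was derived from normalized 440 nm fluorescence ratios of the EFS-evoked membrane-potential response read on FDSS. Recombinant CHO cells were sequentially dye-loaded with coumarin/oxonol FRET pair at room temperature in pH 7.4 buffer before compound addition.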

[2] = test system: CCI-induced static allodynia in rats; test: Chronic Constriction Injury (CCI)-induced static allodynia in rats; format: in vivo, Sprague-Dawley rats; conditions: 100 mg/kg per os
Protocol: Chronic Constriction Injury (CCU-Induced Static Allodynia in Rats
Male Sprague-Dawley rats at 7 weeks old are purchased from Charles River Japan Inc., and housed in groups of two per cage under a 12-h light/dark cycle (lights on at 07:00) with access to food and water ad libitum. CCI-induced static allodynia is assessed by von Frey hair (VFH) test. Surgery is performed according to the method of Bennett G J and Xie Y K (Pain 1988, 33: 87-107). The animals are anesthetized with intraperitoneal injection of pentobarbital sodium. The left common sciatic nerve is exposed at the level of the middle of the thigh, freed of adhering tissue, and four ligatures are loosely tided around it by using 4-0 silk thread. The incision is sutured, and the rats are allowed to recover in their cages with soft bedding. Sham operation is performed in the same manner except of sciatic nerve ligation. The animals are individually placed in a Plexiglas test chamber on an elevated grid to acclimate for 1 hour before the day of testing. […]
In the cases where continuous positive or negative responses are observed all the way out to the end of the stimulus spectrum, values of 0.25 and 15 g are assigned, respectively. […] The 50% PWT is measured at the appropriated time after compound administration.

## CC(=O)Nc1cc(C(=O)NC(C)c2ccc(OCC(F)(F)F)nc2)ccn1 (single isomer, unassigned; (-)) [Example 1, (−)-2-acetamido-N-(1-(6-(2,2,2-trifluoroethoxy)pyridin-3-yl)ethyl)isonicotinamide]
[1]
  activity in CFA-induced thermal hyperalgesia (PWL): significant activity
Human Nav1.7 channels
  IC50: < 1000 nM and 940 nM
[2]
  activity in CCI-induced static allodynia (50% PWT, von Frey hair test): potent activity
